# Experimental data taken from the supplement of paper PMC10307832.
# Assays:
# Test in all cases: relative viability (nuclei count vs DMSO), 5 days (fraction); higher = more cells survive
# Carboplatin + AZD7762 = compound: C1CC(C1)(C(=O)O)C(=O)O.[NH2-].[NH2-].[Pt+2] [Carboplatin] + NC(=O)Nc1cc(-c2cccc(F)c2)sc1C(=O)N[C@H]1CCCNC1 [AZD7762] (partner 0.2 µM)
# Summary of the method: (§1)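 Nuclei were stained with Hoechst during a one-step fixation (final 0.05% Triton X-100, 1% formaldehyde, 1 ug/ml Hoechst) carried out 5 days after dosing, then counted on 4× images. The cells, lung cancer lines in 1536-well plates, had been dosed by pin tool the day after seeding with one drug alone or a fixed anchor-drug dose plus five library-drug doses (not always all listed) in √10 steps. Relative viability is the nuclei count in treated wells divided by that in vehicle wells, and each value is the median of duplicate plates.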
# MLN4924 + Pictilisib = compound: NS(=O)(=O)OC[C@@H]1C[C@@H](n2ccc3c(N[C@H]4CCc5ccccc54)ncnc32)C[C@@H]1O [MLN4924] + CS(=O)(=O)N1CCN(Cc2cc3nc(-c4cccc5[nH]ncc45)nc(N4CCOCC4)c3s2)CC1 [Pictilisib] (partner 1 µM)
# Summary of the method: as §1
# Carboplatin + Lapatinib = compound: C1CC(C1)(C(=O)O)C(=O)O.[NH2-].[NH2-].[Pt+2] [Carboplatin] + CS(=O)(=O)CCNCc1ccc(-c2ccc3ncnc(Nc4ccc(OCc5cccc(F)c5)c(Cl)c4)c3c2)o1 [Lapatinib] (partner 2 µM)
# Summary of the method: as §1
# Carboplatin + Luminespib = compound: C1CC(C1)(C(=O)O)C(=O)O.[NH2-].[NH2-].[Pt+2] [Carboplatin] + CCNC(=O)c1noc(-c2cc(C(C)C)c(O)cc2O)c1-c1ccc(CN2CCOCC2)cc1 [Luminespib] (partner 0.01 µM)
# Summary of the method: as §1
Cell Line,relative viability (Carboplatin + AZD7762; first compound 0.08 µM),relative viability (Carboplatin + AZD7762; first compound 0.253 µM),relative viability (Carboplatin + AZD7762; first compound 0.8 µM),relative viability (Carboplatin + AZD7762; first compound 2.53 µM),relative viability (Carboplatin + AZD7762; first compound 8 µM),relative viability (MLN4924 + Pictilisib; first compound 0.04 µM),relative viability (MLN4924 + Pictilisib; first compound 0.1265 µM),relative viability (MLN4924 + Pictilisib; first compound 0.4 µM),relative viability (MLN4924 + Pictilisib; first compound 1.265 µM),relative viability (MLN4924 + Pictilisib; first compound 4 µM),relative viability (Carboplatin + Lapatinib; first compound 0.08 µM),relative viability (Carboplatin + Lapatinib; first compound 0.253 µM),relative viability (Carboplatin + Lapatinib; first compound 0.8 µM),relative viability (Carboplatin + Lapatinib; first compound 2.53 µM),relative viability (Carboplatin + Lapatinib; first compound 8 µM),relative viability (Carboplatin + Luminespib; first compound 0.08 µM),relative viability (Carboplatin + Luminespib; first compound 0.253 µM),relative viability (Carboplatin + Luminespib; first compound 0.8 µM),relative viability (Carboplatin + Luminespib; first compound 2.53 µM),relative viability (Carboplatin + Luminespib; first compound 8 µM)
NCI-H1755,0.445,0.477,0.491,0.465,0.419,0.221,0.358,0.287,0.134,0.139,1.06,1.1,1.11,1.09,0.995,0.419,0.7,0.41,0.595,0.366
A-427,0.75,0.759,0.778,0.762,0.795,0.66,0.406,0.284,0.179,0.222,1.1,1.05,1.04,1.04,0.985,0.934,0.928,0.928,0.803,0.976
PC-14,0.541,0.316,0.361,0.314,0.202,0.849,0.634,0.307,0.0791,0.0776,0.312,0.368,0.33,0.354,0.251,0.116,0.144,0.148,0.107,0.155
LOU-NH91,0.824,0.761,0.751,0.764,0.773,0.53,0.574,0.515,0.393,0.434,0.84,0.755,0.838,0.819,0.735,0.393,0.337,0.329,0.306,0.34
BEN,0.912,0.792,0.725,0.723,0.818,0.566,0.398,0.254,0.163,0.155,0.797,0.87,0.749,0.654,0.59,0.462,0.3,0.257,0.311,0.266
NCI-H2085,1.02,1.01,0.973,0.995,0.909,0.479,0.719,0.594,0.457,0.42,0.8,0.897,0.787,0.748,0.815,0.454,0.419,0.494,0.488,0.377
ABC-1,–,0.674,0.91,0.77,0.66,0.677,0.809,0.372,0.188,0.374,1.12,1.55,0.848,0.902,1.17,1.17,0.704,0.451,0.435,0.273
NCI-H1792,0.924,0.669,0.606,0.457,0.352,0.375,0.387,0.34,0.147,0.122,1,1.02,0.941,0.817,0.8,0.492,0.36,0.44,0.415,0.267
